This passage reports inhibition of growth, pest or weed control and melting point results from patent US11234437B2 (priority 2017, dated 2022).

Series [1] relates to Gaeumannomyces graminis. The experiment in a line: Gaeumannomyces graminis / liquid culture (take-all of cereals). It counts as cell-based. Conditions: compared to untreated control. The procedure: Mycelial fragments of the fungus from cryogenic storage were directly mixed into nutrient broth (PDB potato dextrose broth). After placing a (DMSO) solution of test compound into a microtiter plate (96-well format), the nutrient broth containing the fungal spores is added. The test plates are incubated at 24° C. and the inhibition of growth is determined photometrically 4-5 days after application.

The subject of series [2] is Gibberella zeae (Fusarium graminearum). Put plainly: whole plant or invertebrate. It counts as in vivo. Conditions: in Triticum aestivum, read-out: control of Gibberella zeae.
Series [3] concerns Monographella nivalis (Microdochium nivale). Put plainly: Monographella nivalis (Microdochium nivale) / liquid culture (foot rot cereals). In kind it is cell-based. The conditions noted are these: compared to untreated control. The procedure: Monographella nivalis (Microdochium nivale)/Liquid Culture (Foot Rot Cereals)
Conidia of the fungus from cryogenic storage are directly mixed into nutrient broth (PDB potato dextrose broth). After placing a (DMSO) solution of test compound into a microtiter plate (96-well format), the nutrient broth containing the fungal spores is added. The test plates are incubated at 24° C. and the inhibition of growth is determined photometrically 4-5 days after application.

The subject of series [4] is Magnaporthe grisea (Pyricularia oryzae). Put plainly: microbe, parasite or virus in culture. It counts as cell-based. The conditions noted are these: read-out: control of Magnaporthe grisea.

On to `C=C(C)C[C@@](C)(Cc1ccccc1)NC(=O)c1cnc2c(F)cccc2c1` [Compound F-6, N-[(1S)-1-benzyl-1,3-dimethyl-but-3-enyl]-8-fluoro-quinoline-3-carboxamide], for which the inhibition of growth at 20 ppm in series [1] and in series [3] was at least 80% each time. In addition, in series [2], the pest or weed control at 200 ppm is at least 80%.
`C=C(C)CC(C)(Cc1ccccc1)NC(=O)c1cnc2c(F)cccc2c1` (stereo not shown) [X.009, N-(1-benzyl-1,3-dimethyl-but-3-enyl)-8-fluoro-quinoline-3-carboxamide]: the inhibition of growth at 20 ppm in series [1], in series [3] and in series [4] was at least 80% each time. Besides, the pest or weed control at 200 ppm in series [2] is at least 80%.
For orientation: melting point means the temperature, or range, at which the solid turns liquid. `CC(C)CC(C)(Cc1ccccc1)NC(=O)c1cnc2c(Cl)cccc2c1` (stereo not shown) [X.018, N-(1-benzyl-1,3-dimethyl-butyl)-8-chloro-quinoline-3-carboxamide] gave a melting point of 147 to 148 °C. In series [1], this compound gave an inhibition of growth at 20 ppm of at least 80%. The compound also registered an inhibition of growth at 20 ppm in series [3] of at least 80%. The inhibition of growth at 20 ppm in series [4] is at least 80%.
The compound `CC(Cc1ccccc1)(CC(F)(F)F)NC(=O)c1cnc2c(F)cccc2c1` (stereo not shown) [X.006, N-(1-benzyl-3,3,3-trifluoro-1-methyl-propyl)-8-fluoro-quinoline-3-carboxamide] showed a melting point of 158 to 160 °C. The inhibition of growth at 20 ppm in series [1] is at least 80%. The pest or weed control at 200 ppm in series [2] was at least 80%. In addition, in series [4], the inhibition of growth at 20 ppm is at least 80%.
As to `CC(C)CC(C)(Cc1cccc(F)c1)NC(=O)c1cnc2c(F)cccc2c1` (stereo not shown) [X.011, 8-fluoro-N-[1-[(3-fluorophenyl)methyl]-1,3-dimethyl-butyl]quinoline-3-carboxamide], the melting point lay within 45 to 47 °C. This compound also showed an inhibition of growth at 20 ppm in series [1] of at least 80%. The inhibition of growth at 20 ppm in series [3] is at least 80%. In addition, the inhibition of growth at 20 ppm in series [4] was at least 80%.
Compound `CC(C)CC(C)(Cc1ccccc1)NC(=O)c1cnc2c(F)cccc2c1` (stereo not shown) [X.002, N-(1-benzyl-1,3-dimethyl-butyl)-8-fluoro-quinoline-3-carboxamide] gave a melting point of 110 to 112 °C. In addition, the inhibition of growth at 20 ppm in series [1] was at least 80%. For the same compound, in series [3], the inhibition of growth at 20 ppm was at least 80%. Moreover, in series [4], the inhibition of growth at 20 ppm was at least 80%.
For `CC(C)CC(C)(Cc1ccccc1)NC(=O)c1cnc2ccccc2c1` (stereo not shown) [X.019, N-(1-benzyl-1,3-dimethyl-butyl)quinoline-3-carboxamide], the melting point was 121 to 123 °C. This compound displayed an inhibition of growth at 20 ppm in series [1] of at least 80%. Moreover, in series [2], the pest or weed control at 200 ppm is at least 80%. In addition, the inhibition of growth at 20 ppm in series [3] was at least 80%.
As for `CC(C)(C)C[C@@](C)(Cc1ccccc1)NC(=O)c1cnc2c(F)cccc2c1` [Compound F-9, N-[(1S)-1-benzyl-1,3,3-trimethyl-butyl]-8-fluoro-quinoline-3-carboxamide], the inhibition of growth at 20 ppm in series [1] and in series [3] was at least 80% each time. In series [2], the pest or weed control at 200 ppm is at least 80%.
Regarding `CC1(CC(C)(Cc2ccccc2)NC(=O)c2cnc3c(F)cccc3c2)CC1` (stereo not shown) [X.003, N-[1-benzyl-1-methyl-2-(1-methylcyclopropyl)ethyl]-8-fluoro-quinoline-3-carboxamide], the melting point fell in the range of 126 to 129 °C. In series [1], this compound gave an inhibition of growth at 20 ppm of at least 80%. Moreover, the pest or weed control at 200 ppm in series [2] is at least 80%. Also, the inhibition of growth at 20 ppm in series [4] was at least 80%.
With `CC(C)C[C@@](C)(Cc1ccccc1)NC(=O)c1cnc2ccccc2c1` [Compound F-3, N-[(1S)-1-benzyl-1,3-dimethyl-butyl]quinoline-3-carboxamide], the inhibition of growth at 20 ppm in series [1], in series [3] and in series [4] was at least 80% throughout.
